The record followed here is patent US20260158031A1, “AROMATIC HETEROCYCLIC COMPOUND, PHARMACEUTICAL COMPOSITION CONTAINING THE SAME, AND USE THEREOF” (HANG ZHOU YUHONG PHARMATECH CO., LTD., priority 2021, published 2026).

Series [1] has as its system collagen-induced mouse arthritis model. As to the kind of experiment: Collagen-induced mouse arthritis model (mCIA). To be noted: female DBA/1J CIA mice, 50 mg/kg once a day, FIG. 2. The class given is in vivo, DBA/1J mice. An excerpt:
Objective of Experiment: to test the immunosuppressive activity of YZ001052 in a mCIA model. PF-06651600 was used as a positive control compound.
Complete and incomplete Freund's adjuvants were mixed with a chicken type II collagen solution in equal proportions to form an emulsifier. Except for the blank control group, on Day 0, a mixture of a complete Freund's adjuvant and the chicken type II collagen solution was subcutaneously injected into the tail roots and thigh roots of the mice, with 100 μL being injected subcutaneously at the tail root of each mouse; and 50 μL being injected subcutaneously at each of the two thigh roots of each mouse (primary immunization). On day 21, the mice were subcutaneously injected with 200 μL of a mixture of an incomplete Freund's adjuvant and the chicken type II collagen solution as a booster injection (second immunization). […] Measurement of paw thickness: the thicknesses of the left and right hind feet of the mice were measured with a vernier caliper to serve as the paw swelling degree and recorded, and the detection frequency was once every 3 days.

In series [2] the test system is p-STAT5 under stimulation with IL-15 in PBMCs. As to the kind of experiment: IL-15 stimulated hPBMC p-STAT5 ELISA. It counts as cell-based. To be noted: Homo sapiens, PBMC, 45 min compound, 30 min IL-15, ELISA. As to the method:
Based on the mechanism of the JAK-STAT pathway, the cytokine IL-15 was adopted to stimulate hPBMC cells, and the downstream STAT5 phosphorylation level was taken as a detection indicator to evaluate the effect of the compound on the JAK-STAT pathway.
• 1. Seeding plate for PBMC cell counting: 90 μL of PBMCs were seeded in a 96-well plate (PBMC cell density: 80,000/well). • 2. Treatment of compound to be tested: after the cells were seeded on the plate, administration treatment was performed immediately. The drug to be tested was 5 μL/well (with final concentration of 1, 0.5, 0.1, 0.05, 0.01, and 0.005 μM), and the plate was incubated in a 37° C. incubator for 45 min. • 3. Stimulation with cytokine IL-15: the cells were stimulated with 5 μL of IL-15 and incubated at 37° C. for 30 min. • 4. Protein sample collection: the cells were collected in a centrifuge tube and centrifuged for 5 min. The supernatant was discarded after the centrifuging, and the cells were lysed with 1× Cell Extraction Buffer PTR. • 5. p-STAT5 detection: detection was conducted according to the requirements of a ELISA kit.
Experimental results: IC50 values of compounds on p-STAT5 under stimulation with IL-15 in PBMCs

A further series concerns the target JAK1 (Homo sapiens, UniProt P23458). As to the kind of experiment: Kinase selectivity experiment, mobility shift assay, JAK1. It counts as biochemical. Particulars: Example 137. How it is done:
(§1) The compounds were diluted with gradients into solutions with a final concentration of 100 times in a 384-well plate. Then 250 nL was transferred to a 384 reaction plate with Echo550 for later use. […]

The target of a further series is JAK2 (Homo sapiens, UniProt O60674). Description: Kinase selectivity experiment, mobility shift assay, JAK2. It counts as biochemical. To be noted: Example 137. How it is done: as §1
A further series deals with TYK2 (Homo sapiens, UniProt P29597). As to the kind of experiment: Kinase selectivity experiment, mobility shift assay, TYK2. The class given is biochemical. To be noted: Example 137. How it is done:
as §1

A further series concerns the target T1, JAK3 kinase (Homo sapiens, UniProt P52333).
T1 sequence (P52333 1-1124): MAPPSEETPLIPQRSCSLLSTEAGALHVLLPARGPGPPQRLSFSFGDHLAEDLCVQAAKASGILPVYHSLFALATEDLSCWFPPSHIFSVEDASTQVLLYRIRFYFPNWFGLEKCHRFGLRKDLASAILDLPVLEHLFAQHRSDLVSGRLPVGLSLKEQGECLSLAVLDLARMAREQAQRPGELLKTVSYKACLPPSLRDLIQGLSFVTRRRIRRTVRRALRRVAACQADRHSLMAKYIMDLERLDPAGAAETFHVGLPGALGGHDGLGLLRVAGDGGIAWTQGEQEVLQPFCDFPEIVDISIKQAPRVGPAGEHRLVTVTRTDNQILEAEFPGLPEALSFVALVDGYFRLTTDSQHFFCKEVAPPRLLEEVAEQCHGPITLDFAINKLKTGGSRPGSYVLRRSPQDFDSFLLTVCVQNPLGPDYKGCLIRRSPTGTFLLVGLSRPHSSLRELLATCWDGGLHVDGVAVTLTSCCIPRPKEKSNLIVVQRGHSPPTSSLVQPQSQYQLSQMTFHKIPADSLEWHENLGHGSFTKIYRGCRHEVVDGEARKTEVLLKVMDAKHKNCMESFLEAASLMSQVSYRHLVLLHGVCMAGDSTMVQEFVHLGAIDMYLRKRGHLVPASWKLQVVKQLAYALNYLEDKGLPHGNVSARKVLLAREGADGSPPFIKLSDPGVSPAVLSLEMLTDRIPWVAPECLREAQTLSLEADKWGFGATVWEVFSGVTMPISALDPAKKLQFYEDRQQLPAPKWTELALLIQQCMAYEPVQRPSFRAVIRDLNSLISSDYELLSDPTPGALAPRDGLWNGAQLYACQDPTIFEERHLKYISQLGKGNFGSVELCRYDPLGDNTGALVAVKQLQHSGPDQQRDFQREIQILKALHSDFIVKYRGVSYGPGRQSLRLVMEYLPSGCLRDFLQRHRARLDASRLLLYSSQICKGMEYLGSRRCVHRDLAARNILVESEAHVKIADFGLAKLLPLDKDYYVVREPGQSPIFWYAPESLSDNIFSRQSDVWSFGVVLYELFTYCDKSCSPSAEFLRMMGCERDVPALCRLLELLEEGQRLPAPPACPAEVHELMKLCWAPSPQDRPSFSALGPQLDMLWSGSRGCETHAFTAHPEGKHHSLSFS
As to the kind of experiment: Mobility shift assay, in vitro JAK3 kinase inhibitory activity. It counts as biochemical. As to the method:
A Mobility shift assay was adopted to detect compounds to be tested (see list below) for in vitro inhibitory activity on the enzyme activity of JAK3 kinase.
The compound was dissolved in 100% DMSO to formulate a 10 mM stock solution, which was stored in a −20° C. refrigerator with protection from light.
The compounds were diluted with gradients into solutions with a final concentration of 100 times in a 384-well plate. Then 250 nL was transferred to a 384 reaction plate with Echo550 for later use. 250 nL of 100% DMSO was added into the negative control well and the positive control well respectively. • (3) A kinase solution with a final concentration of 2.5 times was formulated with the 1× Kinase buffer. • (4) The compound wells and the positive control wells were added with 10 μL of the kinase solution with the final concentration of 2.5 times respectively; the negative control wells were added with 10 μL of the 1× Kinase buffer. • (5) The wells were centrifuged at 1,000 rpm for 30 seconds, mixed well by shaking, and then incubated at room temperature for 10 minutes. • (6) A mixed solution of ATP and Kinase substrate 22 with a final concentration of 25/15 times was formulated with a 1× Kinase buffer. • (7) The compound wells, positive control wells and negative control wells of the 384 reaction plate were respectively added with 15 μL of a mixed solution of ATP and the substrate at the final concentration of 25/15 times to start the reaction. • (8) The 384-well plate was centrifuged at 1,000 rpm for 30 seconds, mixed well by shaking, and then incubated at room temperature for 30 minutes. • (9) 30 μL of a detection termination solution was added to stop the kinase reaction, centrifuged at 1,000 rpm for 30 seconds, and mixed well by shaking. • (10) The conversion rate was read with Caliper EZ Reader.
% Inhibition=(Conversion %_max−Conversion %_sample)/(Conversion %_max−Conversion %_min)×100 (1) Calculation Equation
Among them: Conversion %_sample was the conversion rate reading of the sample; Conversion %_min was the mean value of the negative control wells, representing the conversion rate reading of the wells without enzyme activity; Conversion % max was the mean value of the positive control wells, representing the conversion rate reading of the wells without compound inhibition; and % Inhibition represented the percentage inhibition rate.
• by taking the log value of concentration as the X axis and taking the percent inhibition rate as the Y axis, a dose-response curve is fitted by adopting the log (inhibitor) vs. response-Variable slope of the analysis software GraphPad Prism 5, so as to obtain the IC50 value of each compound on the enzyme activity. The calculation equation was Y=Bottom+ (Top−Bottom)/(1+10^((Log IC50−X)*HillSlope)).

A further series deals with SRBC mouse model. As to the kind of experiment: SRBC-induced delayed type hypersensitivity (DTH) in mice. To be noted: male Balb/c mice, 100 mg/kg by gavage once a day, day 0 to day 6, FIG. 1. It counts as in vivo. How it is done:
PF-06651600 was used as a positive control compound.
Drug preparation: the compound was weighed and added with a 0.5% CMC-Na solution to prepare a drug suspension (with an administration dose of 10 mg/mL).
Induction of delayed type hypersensitivity (DTH) and administration: 30 male Balb/c mice were weighed and randomly divided into 6 groups according to body weight, with 5 mice in each group. The experimental period lasted for 7 days in total. On day 0, the mice were subcutaneously injected with sheep red blood cells (SRBCs) for sensitization. From day 0, the mice were administrated with 100 mg/kg by gavage (once a day) until day 6. On day 6, SRBCs were injected into the right hind foot pad of the mice for excitation. On day 7 of the experiment, measurements were conducted, photographs were taken, and the experiment was ended.
Pharmacodynamic detection indicators of disease models: the detection and observation indicators were the degree of redness and swelling and detected thicknesses of paw pads of the mice in the model group as induced by SRBC. The thickness of the right paw was measured as the baseline before the SRBC injection excitation on day 6. At the end of the experiment […], the thickness of the right paw was measured again, and the difference in thickness of the paw before and after the second injection was calculated.
Statistical processing: experimental data was expressed as mean±standard deviation (Mean±SD). All data was statistically analyzed using a T-test. P<0.05 was considered to be statistically different.

Series [3] can be described thus: In vivo exposure detection in SD rats (plasma, LC-MS/MS). To be noted: IG 20 mg/kg, average value. As to the method:
Preparation and processing of standard curves and quality control samples: the compound stock solution was taken and diluted with 50% methanol and water into standard working solutions containing respective compounds at concentrations of 20, 40, 100, 200, 400, 1,000, 2,000, 4,000, and 10,000 ng/mL respectively and quality control working solutions at concentrations of 60, 600 and 8,000 ng/mL respectively. Each 47.5 μL of blank rat plasma was taken and added with 2.50 μL of a standard curve working solution and a quality control working solution respectively to prepare standard curve samples containing respective compounds at concentrations of 1.00, 2.00, 5.00, 10.00, 20.00, 50.00, 100.00, 200.00 and 500.00 ng/mL and quality control samples with concentrations of 3.00, 30.00 and 400.00 ng/mL. The samples were respectively added with 200 μL of acetonitrile (containing 2 ng/mL of verapamil as an internal standard), vortexed with shaking for 3 min, and then centrifuged at 20,000 rcf and 4° C. for 10 min, and the supernatant was taken for LC-MS/MS analysis.
Preparation and processing of plasma sample to be tested: 50 μL of the plasma sample was taken, added with 200 μL of acetonitrile (containing 2 ng/ml of verapamil as an internal standard), vortexed with shaking for 3 min, and then centrifuged at 20,000 rcf and 4° C. for 10 min, and […] for LC-MS/MS analysis.

[4] abbreviates: mobility shift assay, Example 136.

SMILES strings stand for the structures.

Sequence of JAK2 (O60674 whole entry, species assumed): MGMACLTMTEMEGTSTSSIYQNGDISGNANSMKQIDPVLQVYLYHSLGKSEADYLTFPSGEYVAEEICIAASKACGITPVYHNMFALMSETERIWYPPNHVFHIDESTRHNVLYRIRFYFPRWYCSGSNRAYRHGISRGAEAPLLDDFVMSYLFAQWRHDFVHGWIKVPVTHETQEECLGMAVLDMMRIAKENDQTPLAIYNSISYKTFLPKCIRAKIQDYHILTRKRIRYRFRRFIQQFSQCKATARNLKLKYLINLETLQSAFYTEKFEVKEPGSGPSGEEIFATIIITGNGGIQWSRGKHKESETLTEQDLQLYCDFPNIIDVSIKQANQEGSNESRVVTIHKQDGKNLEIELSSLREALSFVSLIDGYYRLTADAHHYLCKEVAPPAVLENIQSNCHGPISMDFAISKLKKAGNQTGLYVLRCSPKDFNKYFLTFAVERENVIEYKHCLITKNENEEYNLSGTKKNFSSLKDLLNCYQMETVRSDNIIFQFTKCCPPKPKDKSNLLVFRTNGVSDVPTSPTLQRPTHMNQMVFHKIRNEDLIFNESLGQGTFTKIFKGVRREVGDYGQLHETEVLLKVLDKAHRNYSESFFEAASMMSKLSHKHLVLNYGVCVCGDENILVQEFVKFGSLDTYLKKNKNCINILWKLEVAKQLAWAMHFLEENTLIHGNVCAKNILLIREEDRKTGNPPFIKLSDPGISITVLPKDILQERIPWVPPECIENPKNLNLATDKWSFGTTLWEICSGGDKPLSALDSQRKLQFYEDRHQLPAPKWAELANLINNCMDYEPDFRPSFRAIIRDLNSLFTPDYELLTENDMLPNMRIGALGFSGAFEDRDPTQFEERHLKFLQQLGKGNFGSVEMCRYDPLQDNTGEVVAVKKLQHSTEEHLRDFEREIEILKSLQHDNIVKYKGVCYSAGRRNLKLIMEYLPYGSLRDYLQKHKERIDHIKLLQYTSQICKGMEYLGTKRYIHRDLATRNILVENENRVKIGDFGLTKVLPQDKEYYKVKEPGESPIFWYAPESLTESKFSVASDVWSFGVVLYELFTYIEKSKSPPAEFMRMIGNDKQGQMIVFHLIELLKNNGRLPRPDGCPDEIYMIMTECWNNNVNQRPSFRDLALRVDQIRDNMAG
Sequence of TYK2 (P29597 whole entry, species assumed): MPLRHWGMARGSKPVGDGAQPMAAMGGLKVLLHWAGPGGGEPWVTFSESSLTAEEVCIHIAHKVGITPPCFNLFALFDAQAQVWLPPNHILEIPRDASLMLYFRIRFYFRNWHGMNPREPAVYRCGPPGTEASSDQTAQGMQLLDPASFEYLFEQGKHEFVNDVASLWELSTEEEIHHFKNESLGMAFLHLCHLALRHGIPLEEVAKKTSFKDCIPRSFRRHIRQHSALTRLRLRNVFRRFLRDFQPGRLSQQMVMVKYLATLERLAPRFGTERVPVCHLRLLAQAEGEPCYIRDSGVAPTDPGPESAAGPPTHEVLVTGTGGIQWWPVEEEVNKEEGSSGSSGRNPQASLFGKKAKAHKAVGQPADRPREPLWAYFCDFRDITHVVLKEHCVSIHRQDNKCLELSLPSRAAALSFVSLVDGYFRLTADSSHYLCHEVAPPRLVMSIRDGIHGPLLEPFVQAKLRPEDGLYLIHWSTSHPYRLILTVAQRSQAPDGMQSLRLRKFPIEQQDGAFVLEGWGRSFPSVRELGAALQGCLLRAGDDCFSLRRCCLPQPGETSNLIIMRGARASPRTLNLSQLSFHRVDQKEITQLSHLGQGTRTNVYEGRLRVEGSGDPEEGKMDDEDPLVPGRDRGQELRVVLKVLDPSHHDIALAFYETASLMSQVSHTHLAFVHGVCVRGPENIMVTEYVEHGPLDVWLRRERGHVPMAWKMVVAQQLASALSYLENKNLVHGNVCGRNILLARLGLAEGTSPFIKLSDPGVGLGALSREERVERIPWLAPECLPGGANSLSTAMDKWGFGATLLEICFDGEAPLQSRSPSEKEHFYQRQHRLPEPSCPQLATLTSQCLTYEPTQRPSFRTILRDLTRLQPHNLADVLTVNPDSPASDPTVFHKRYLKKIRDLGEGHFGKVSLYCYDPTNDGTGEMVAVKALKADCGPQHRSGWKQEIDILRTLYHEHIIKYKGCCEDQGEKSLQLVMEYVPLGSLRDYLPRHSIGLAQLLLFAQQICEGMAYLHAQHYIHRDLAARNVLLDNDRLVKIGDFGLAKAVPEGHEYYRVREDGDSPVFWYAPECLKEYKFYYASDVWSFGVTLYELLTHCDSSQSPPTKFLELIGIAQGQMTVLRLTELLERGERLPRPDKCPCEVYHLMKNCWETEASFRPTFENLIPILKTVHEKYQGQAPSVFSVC
Sequence of JAK1 (P23458 whole entry, species assumed): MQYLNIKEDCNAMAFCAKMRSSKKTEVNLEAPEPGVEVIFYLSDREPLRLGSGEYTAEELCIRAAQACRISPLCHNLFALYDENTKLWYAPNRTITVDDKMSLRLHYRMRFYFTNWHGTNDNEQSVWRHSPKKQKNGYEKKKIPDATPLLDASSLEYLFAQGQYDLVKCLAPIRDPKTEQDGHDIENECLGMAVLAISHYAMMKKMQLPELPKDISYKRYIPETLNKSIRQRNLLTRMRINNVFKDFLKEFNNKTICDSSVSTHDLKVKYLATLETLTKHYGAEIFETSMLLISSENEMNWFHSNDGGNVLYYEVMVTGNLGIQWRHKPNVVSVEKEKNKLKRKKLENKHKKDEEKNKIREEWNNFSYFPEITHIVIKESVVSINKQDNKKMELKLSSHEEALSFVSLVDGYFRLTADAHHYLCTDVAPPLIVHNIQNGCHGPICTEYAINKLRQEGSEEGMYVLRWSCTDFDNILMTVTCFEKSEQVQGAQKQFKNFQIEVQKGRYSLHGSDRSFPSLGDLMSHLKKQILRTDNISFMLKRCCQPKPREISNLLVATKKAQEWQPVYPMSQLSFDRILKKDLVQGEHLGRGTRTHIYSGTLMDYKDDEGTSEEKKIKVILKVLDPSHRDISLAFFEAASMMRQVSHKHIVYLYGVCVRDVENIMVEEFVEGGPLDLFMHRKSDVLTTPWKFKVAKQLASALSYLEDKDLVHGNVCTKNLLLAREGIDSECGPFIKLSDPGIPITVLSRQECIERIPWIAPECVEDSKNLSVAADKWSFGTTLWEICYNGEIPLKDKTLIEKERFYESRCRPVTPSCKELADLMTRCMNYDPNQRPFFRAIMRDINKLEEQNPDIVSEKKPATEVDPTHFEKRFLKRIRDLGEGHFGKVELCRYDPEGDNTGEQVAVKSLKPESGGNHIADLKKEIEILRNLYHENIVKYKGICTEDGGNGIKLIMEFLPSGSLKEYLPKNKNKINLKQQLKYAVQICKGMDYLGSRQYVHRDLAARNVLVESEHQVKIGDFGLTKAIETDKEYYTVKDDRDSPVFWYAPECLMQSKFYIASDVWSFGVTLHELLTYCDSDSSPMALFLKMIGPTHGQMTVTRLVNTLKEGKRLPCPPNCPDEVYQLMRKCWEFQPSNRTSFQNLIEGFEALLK

In the case of `C=CC(=O)N1C[C@H](Nc2ncnc3[nH]ccc23)CC[C@@H]1C` [PF-06651600, reference compound], in series [1], the “swelling of the paws” value was “improved to varying degrees”. Also, in series [1] (compared to the model group), the arthritis scores result was “significantly reduced”. The half-maximal inhibitory concentration (IC50) (in general, the concentration that inhibits the measured activity by half) in series [2] came to 0.085 µM.
Turning to `C=CC(=O)N1Cc2c(-c3ccnc4[nH]ccc34)cnn2C[C@H]1C` [YZ001001], the IC50 at JAK1, at JAK2 and at TYK2 was > 10 µM throughout.
Turning to `C[C@@H]1Cn2ncc(-c3ccnc4[nH]ccc34)c2CN1C(=O)/C=C/CN(C)C` [YZ001005], the IC50 was > 10 µM on JAK1; > 10 µM on JAK2; 0.016 µM on JAK3 kinase (selectivity table, Example 137); > 10 µM at TYK2.
Consider `C=C(F)C(=O)N1CCc2c(c(-c3ccnc4[nH]ccc34)nn2C)C1` [YZ001054], for which, in the series on SRBC mouse model, the “immunosuppressive effect on SRBC-induced delayed type hypersensitivity (right paw thickness)” value is listed as “significant immunosuppressive effects”. Further, in series [3], the AUClast_D stood at 93.88 kg·ng·h/mL/mg, the Cl_F_obs is 235.1403 mL/min/kg, the HL_Lambda_z came out at 1.4162 h and the Vz_F_obs came to 34.35946 L/kg. For the same compound, in series [3] (Sprague-Dawley (SD), rat, po), the exposure AUC(0-t) (usually the area under the concentration-time curve up to a stated or last time point) was determined as 1880 ng·h/mL, the peak level (Cmax) was 1360 ng/mL and the Tmax (usually the time at which the peak concentration occurs) turned out to be 4.5 h. In series [3] (Sprague-Dawley (SD), rat, po, read-out: AUCINF_obs), the AUC(0-inf) came to 1900 ng·h/mL. In addition, the MRT inf in series [3] (Sprague-Dawley (SD), rat, po, read-out: MRTINF_obs) stood at 1.95 h.
Regarding `C=CC(=O)N1CCc2[nH]nc(-c3ccnc4[nH]ccc34)c2C1` [YZ001065], the “immunosuppressive effect on SRBC-induced delayed type hypersensitivity (right paw thickness)” value in the series on SRBC mouse model was “significant immunosuppressive effects”. The IC50 stood at 0.0007 µM at JAK3 kinase (setting [4]) and 0.0263 µM in series [2].
In the case of `C=C(F)C(=O)N1Cc2c(-c3ccnc4[nH]ccc34)cnn2C[C@H]1CCS(C)(=O)=O` [YZ001075], the results for the IC50 (on JAK3 kinase (setting [4]); in series [2]) were 0.0012 µM and 0.0317 µM, respectively.
